pIC50: −log10 of the molar value.
Columns and labels:
[1] = molecular target: T1, PD-L1 protein on the surface of MC38-hPDL1 tumor cells (Homo sapiens, UniProt Q9NZQ7); assay: Induction of endocytosis of PD-L1 on the surface of tumor cells (flow cytometry); assay type: cell-based; conditions: 16 hours incubation; for Emax: MC38-hPDL1 cells, read-out: MC38 maximum endocytosis rate; for pIC50: inducing endocytosis of PD-L1, MC38-hPDL1 cells, read-out: MC38 IC50
T1 construct: expressed in transfected cells; host or cells: MC38-hPDL1 (mouse colon cancer cells)
Description: Test Embodiment 2. Test of the Activity of Compounds of the Present Disclosure on Inducing the Endocytosis of PD-L1 Protein on the Surface of Tumor Cells
Experimental purpose: The purpose of this test embodiment was to test the activity of the compound on inducing the endocytosis of PD-L1 on the surface of tumor cells.
Experimental method: In order to test the activity of the compound on inducing the endocytosis of PD-L1, in this experiment, the activity of the compound on inducing the endocytosis of PD-L1 was tested by detecting the change degree of PD-L1 on the tumor cell surface with fluorescently labeled anti-PD-L1 antibody, and the IC50 of activity of the compound on inducing the endocytosis of PD-L1 was obtained.
The mouse colon cancer cells MC38-hPDL1 with high expression of hPD-L1 were collected, and adjusted to a suitable density and plated in a 24-well plate, and placed in a 37° C., 5% CO2 incubator to adhere overnight. Compounds were prepared into different concentrations by medium and added to a 24-well plate, and a vehicle control well was set up. After the cells were incubated in a 37° C., 5% CO2 incubator for 16 hours, the 24-well plate was taken out, and MC38-hPDL1 cells with different treatments in the plate were collected. After the cells were washed once with FACS buffer (PBS containing 0.5% BSA), and the cells were prepared to an appropriate density with FACS buffer. PE Mouse Anti-Human CD274 antibody (BD Pharmingen #557924) was added, and the cells were shaken at room temperature and incubated for 30 minutes without light, then the cells were washed twice with FACS buffer, resuspended in 100 μL of PBS, and a flow cytometer was used to detect the fluorescent signal on the cell surface, and the isotype control was set as a negative control.
The endocytosis rate of the compounds was calculated from the fluorescence signals of different treatment groups, and the compound concentration and endocytosis rate were fitted by nonlinear regression using GraphPad Prism software, and IC50 values were obtained, as shown in Table 2.

human PD-L1 protein = molecular target: T2, human PD-L1 protein (Homo sapiens, UniProt Q9NZQ7); assay: Thermal shift: melting temperature of PD-L1 protein; assay type: binding; conditions: compound 10 μM, PD-L1 protein 2 μM, Tm minus DMSO vehicle control; read-out: ΔTm (° C.)
T2 construct: purchased Acro Biosystems PD1-H5229
Experimental: Test Embodiment 4. Test of Combination of the Compounds of the Present Disclosure to Improve the Stability (Melting Temperature) of PD-L1 Protein Experimental purpose: To test the ability of compounds to enhance the stability of PD-L1 protein and increase the melting temperature of the protein. Experimental method: […] A solution containing […] HEPES, SYPRO Orange, and 150 mM NaCl was prepared as experimental buffer, and human PD-L1 protein was added at a final concentration of 2 μM. […] PCR tube was put into the PCR machine, and the melt curve function was selected to detect the melting temperature of PD-L1 protein in different treatment groups (heated from 25° C. to 95° C., 0.03° C./s). The experimental data file of the PCR instrument was imported into the thermal shift software to obtain the melting temperature (Tm) of each treatment group, and the Tm of the DMSO vehicle control group was subtracted to obtain the change value (ΔTm) of the melting temperature, as shown in the following table: […]

human PD-1/PD-L1 binding = molecular target: T3, human PD-1/PD-L1 binding (Homo sapiens, UniProt Q9NZQ7); assay: Inhibition of human PD-1/PD-L1 binding (TR-FRET/HTRF); conditions: TR-FRET, PD-L1-His and PD-1-Fc; read-out: PD-1/PD-L1 binding IC50
T3 construct: PD-L1-His protein (19 to 238 amino acids) (Abcam #ab167713); purchased Abcam (PD-L1-His); R&D (PD-1-Fc) ab167713; 1086-PD
Method in brief: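 PD-L1-His (aa 19–238, diluted to 10 nM) and PD-1-Fc (aa 25–167, diluted to 20 nM) incubated with compounds (10 μM or 1 μM top, 3-fold, 11 doses) 60 min at room temperature, then anti-6HIS Eu cryptate/anti-human IgG-XL665 added for 3 h RT or overnight 4 °C. HTRF 665/620 nm ratio gave inhibition and IC50.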

T1 sequence (Q9NZQ7 19-290): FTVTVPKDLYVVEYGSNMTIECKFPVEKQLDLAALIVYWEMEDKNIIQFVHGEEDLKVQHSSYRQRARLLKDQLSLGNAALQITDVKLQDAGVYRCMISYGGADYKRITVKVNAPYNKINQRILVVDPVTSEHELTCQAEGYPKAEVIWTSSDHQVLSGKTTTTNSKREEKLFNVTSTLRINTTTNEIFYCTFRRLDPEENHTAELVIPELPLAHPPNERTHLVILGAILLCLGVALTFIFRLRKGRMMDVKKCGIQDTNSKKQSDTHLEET
T2 sequence (Q9NZQ7 19-238 limits assumed): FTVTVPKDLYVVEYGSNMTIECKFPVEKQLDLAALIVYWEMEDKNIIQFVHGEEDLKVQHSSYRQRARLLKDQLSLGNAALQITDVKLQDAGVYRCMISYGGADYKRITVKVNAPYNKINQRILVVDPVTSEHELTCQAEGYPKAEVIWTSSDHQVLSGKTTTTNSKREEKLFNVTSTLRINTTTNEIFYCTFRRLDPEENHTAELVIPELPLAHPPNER
T3 sequence (Q9NZQ7 19-238): as the sequence (Q9NZQ7 19-238 limits assumed) above

Row | SMILES | Emax [1] [%] | pIC50 [1] | ΔTm at 10 µM (human PD-L1 protein) [°C] | pIC50 (human PD-1/PD-L1 binding)
1 | COc1cc(C(=O)Nc2cccc(-c3cccc(NC(=O)c4nc5c(n4C)CCN(C)C5)c3Cl)c2C)ncc1CNc1cc(C)ncn1 [Embodiment 91, N-(2-Chloro-3′-(4-methoxy-5-(((6-methylpyrimidin-4-yl)amino)methyl)picolinamido)-2′-methyl-[1,1′-biphenyl]-3-yl)-1,5-dimethyl-4,5,6,7-tetrahydro-1H-imidazo[4,5-c]pyridine-2-carboxamide] | 81 | 7.85 | 10.3 | 
2 | COc1nc(-c2cccc(-c3cccc(NC(=O)c4nc5c(n4C)CCN(C)C5)c3Cl)c2Cl)ccc1CN1CCN(C(=O)C2CC2)CC1 [Embodiment 200, N-(2,2′-Dichloro-3′-(5-((4-(cyclopropylcarbonyl)piperazin-1-yl)methyl)-6-methoxypyridin-2-yl)-[1,1′-biphenyl]-3-yl)-1,5-dimethyl-4,5,6,7-tetrahydro-1H-imidazo[4,5-c]pyridine-2-carboxamide] | 95 |  | 12.5 | 
3 | COC(=O)[C@H](CO)NCc1cnc(-c2cccc(-c3cccc(NC(=O)c4nc5c(n4C)CCN(C)C5)c3Cl)c2Cl)nc1OC [Embodiment 227, Methyl ((2-(2,2′-dichloro-3′-(1,5-dimethyl-4,5,6,7-tetrahydro-1H-imidazo[4,5-c]pyridine-2-carboxamido)-[1,1′-biphenyl]-3-yl)-4-methoxypyrimidin-5-yl)methyl)-L-serinate] |  |  | 11.9 | 
4 | COc1nc(-c2cccc(-c3cccc(NC(=O)c4nc5c(n4C)CCN(C)C5)c3Cl)c2Cl)ccc1CN1CCC(C#N)CC1 [Embodiment 211, N-(2,2′-Dichloro-3′-(5-((4-cyanopiperidin-1-yl)methyl)-6-methoxypyridin-2-yl)-[1,1′-biphenyl]-3-yl)-1,5-dimethyl-4,5,6,7-tetrahydro-1H-imidazo[4,5-c]pyridine-2-carboxamide] | 95 | 8.51 | 14.6 | 
5 | COc1nc(-c2cccc(-c3cccc(NC(=O)c4nc5c(n4C)CCN(C)C5)c3Cl)c2Cl)ccc1CN1C2CC1CN(C(=O)C(C)C)C2 [Embodiment 210, N-(2,2′-Dichloro-3′-(5-((3-isobutyryl-3,6-diazabicyclo[3.1.1]heptan-6-yl)methyl)-6-methoxypyridin-2-yl)-[1,1′-biphenyl]-3-yl)-1,5-dimethyl-4,5,6,7-tetrahydro-1H-imidazo[4,5-c]pyridine-2-carboxamide] | 88 |  | 10.7 | 
6 | COc1cc(-c2cccc(-c3cccc(NC(=O)c4nc5c(n4C)CCN(C)C5)c3Cl)c2Cl)ncc1CNC[C@@H]1CCC(=O)N1 [Embodiment 56, (S)—N-(2,2′-Dichloro-3′-(4-methoxy-5-((((5-carbonylpyrrolidin-2-yl)methyl)amino)methyl)pyridin-2-yl)-[1,1′-biphenyl]-3-yl)-1,5-dimethyl-4,5,6,7-tetrahydro-1H-imidazo[4,5-c]pyridine-2-carboxamide] | 91 | 7.91 |  | 8.68
7 | COc1cc(C(=O)Nc2cccc(-c3cccc(NC(=O)c4nc5c(n4C)CCN(C)C5)c3Cl)c2C)ncc1CO [Embodiment 49, N-(2-Chloro-3′-(5-(2-hydroxymethyl)-4-methoxypicolinamido)-2′-methyl-[1,1′-biphenyl]-3-yl)-1,5-dimethyl-4,5,6,7-tetrahydro-1H-imidazo[4,5-c]pyridine-2-carboxamide] | 93 | 7.97 |  | 8.29
8 | COc1cc(C(=O)Nc2cccc(-c3cccc(NC(=O)c4nc5c(n4C)CCN(C)C5)c3Cl)c2C)ncc1CNC1(C)COC1 [Embodiment 99, N-(2-Chloro-3′-(4-methoxy-5-(((3-methyloxetan-3-yl)amino)methyl)picolinamido)-2′-methyl-[1,1′-biphenyl]-3-yl)-1,5-dimethyl-4,5,6,7-tetrahydro-1H-imidazo[4,5-c]pyridine-2-carboxamide] | 91 | 8.41 |  | 8.36
9 | COc1cc(C(=O)Nc2cccc(-c3cccc(NC(=O)c4nc5c(n4C)CCN(C)C5)c3Cl)c2C)ncc1CNC1CCOCC1 [Embodiment 35, N-(2-Chloro-3′-(4-methoxy-5-(((tetrahydro-2H-pyran-4-yl)amino)methyl)picolinamido)-2′-methyl-[1,1′-biphenyl]-3-yl)-1,5-dimethyl-4,5,6,7-tetrahydro-1H-imidazo[4,5-c]pyridine-2-carboxamide] | 96 | 8.89 |  | 8.44
10 | COc1cc(NCc2cnc(C(=O)Nc3cccc(-c4cccc(NC(=O)c5nc6c(n5C)CCN(C)C6)c4Cl)c3C)cc2OC)ccn1 [Embodiment 1, N-(2-Chloro-3′-(4-methoxy-5-(((2-methoxypyridin-4-yl)amino)methyl)picolinamido)-2′-methyl-[1,1′-biphenyl]-3-yl)-1,5-dimethyl-4,5,6,7-tetrahydro-1H-imidazo[4,5-c]pyridine-2-carboxamide] | 88 | 8.47 |  | 8.16
11 | COc1cc(NCc2cnc(C(=O)Nc3cccc(-c4cccc(NC(=O)c5nc6c(n5C)CCN(C)C6)c4Cl)c3Cl)cc2OC)ccn1 [Embodiment 2, N-(2,2′-Dichloro-3′-(4-methoxy-5-(((2-methoxypyridin-4-yl)amino)methyl)picolinamido)-[1,1′-biphenyl]-3-yl)-1,5-dimethyl-4,5,6,7-tetrahydro-1H-imidazo[4,5-c]pyridine-2-carboxamide] | 89 | 8.34 |  | 8.30
12 | COc1cc(C(=O)Nc2cccc(-c3cccc(NC(=O)c4nc5c(n4C)CCN(C)C5)c3Cl)c2C)ncc1CNC[C@@H]1CCC(=O)N1 [Embodiment 39, (S)—N-(2-Chloro-3′-(4-methoxy-5-((((5-carbonylpyrrolidin-2-yl)methyl)amino)methyl)picolinamido)-2′-methyl-[1,1′-biphenyl]-3-yl)-1,5-dimethyl-4,5,6,7-tetrahydro-1H-imidazo[4,5-c]pyridine-2-carboxamide] | 97 | 8.72 |  | 8.30
13 | COc1cc(C(=O)Nc2cccc(-c3cccc(NC(=O)c4nc5c(n4C)CCN(C)C5)c3Cl)c2C)ncc1CN1CC(F)(CO)COC1=O (centres unmarked) [Embodiment 22, N-(2-Chloro-3′-(5-((5-fluoro-5-(hydroxymethyl)-2-carbonyl-1,3-oxazinan-3-yl)methyl)-4-methoxypicolinamido)-2′-methyl-[1,1′-biphenyl]-3-yl)-1,5-dimethyl-4,5,6,7-tetrahydro-1H-imidazo[4,5-c]pyridine-2-carboxamide] | 92 | 7.84 |  | 8.23
14 | Cc1c(NC(=O)c2cc(C3CC3)c(CO)cn2)cccc1-c1cccc(NC(=O)c2nc3c(n2C)CCN(C)C3)c1Cl [Embodiment 51, N-(2-Chloro-3′-(4-cyclopropyl-5-(hydroxymethyl)picolinamido)-2′-methyl-[1,1′-biphenyl]-3-yl)-1,5-dimethyl-4,5,6,7-tetrahydro-1H-imidazo[4,5-c]pyridine-2-carboxamide] | 91 | 7.93 |  | 8.26
15 | COc1cc(NCc2cnc(C(=O)Nc3cccc(-c4cccc(NC(=O)c5nc6c(n5C)CCNC6)c4Cl)c3Cl)cc2OC)ccn1 [Embodiment 81, N-(2,2′-Dichloro-3′-(4-methoxy-5-(((2-methoxypyridin-4-yl)amino)methyl)picolinamido)-[1,1′-biphenyl]-3-yl)-1-methyl-4,5,6,7-tetrahydro-1H-imidazo[4,5-c]pyridine-2-carboxamide] | 86 | 8.30 |  | 8.62

— patent US20230105212A1, “BIPHENYL DERIVATIVE INHIBITOR, PREPARATION METHOD THEREFOR AND USE THEREOF” (SHANGHAI HANSOH BIOMEDICAL CO., LTD., priority 2020, published 2023)
